One block for each compound: values may come before it.
Tested on: PDC 899932-113-R3-J6 complex spheroid viability
Assay: Anticancer human tumor 899932-113-R3-J6-PDC patient-derived melanoma cell line growth inhibition [RAS]
Conditions: for IC50: curve of first compound; for viability, T/C: stronger effect = lower value
Source text: RAS pathway inhibitors in Combinations in Complex Spheroids
A high-throughput screen of multi-cell type tumor spheroids was designed to identify active combinations of RAS pathway inhibitors and targeted small molecules. Complex spheroids include a stromal component modeled by human endothelial cells (HUVEC) and fibroblasts modeled by human mesenchymal stem cells (MSCs). The concentration ranges selected for each drug and investigational agent were based upon clinically achievable concentrations if the clinical Cmax of the agent was known.
Compounds. The drugs and investigational agents: abemaciclib (NSC768073), cobimetinib (NSC768068), divarasib (GDC6063, NSC841802), docetaxel (NSC628503), GDC-1971 (RLY-1971, NSC841576), gemcitabine (NSC613327), inavolisib (NSC800729), ipatasertib (NSC767898), KB-0742 (NSC834161), MRTX-1133 (NSC836407), osimertinib (NSC779217), RMC-4630 (NSC839698), RMC-6236 (NSC851965), RMC-6291 (NSC852671), Ro-3306 (NSC812927), sapanisertib (NSC764658), SN-38 (NSC673596), staurosporine (NSC755774), SY5609 (NSC837396), and tovorafenib (DAY101, NSC766906), were obtained from the National Cancer Institute (NCI) Developmental Therapeutics Program Chemical Repository. The FDA-approved anticancer drug set is available from the NCI Developmental Therapeutics Program. […] The stock solutions were prepared in dimethyl sulfoxide (DMSO, Sigma-Aldrich, St. Louis, MO, cat. D2650) at 800-fold the tested concentration and stored at -70 degrees C prior to their use. All drugs and investigational agents were tested over a range starting from a high concentration at or near the clinical Cmax and decreasing in half-log increments. If the clinical Cmax for an agent had not been determined, the highest concentration tested was 10 microM.
Cell Culture. All cells were maintained in an incubator at 37 degrees C and 5% CO2 with 95% humidity. The PDC lines were cultured according to standard operating procedures established by the NCI PDMR. All PDCs were thawed and cultured in Matrigel-coated flasks prepared with a working solution of 1X Ham's F-12 nutrient mix, without supplementation (Invitrogen, Waltham, MA, cat. 11765054), 100 U/mL penicillin-streptomycin (Invitrogen, cat. 15140122), and 2.5% Matrigel (Corning Inc., Corning, NY, cat. 354248) for the first three passages. The 362531-283-R-J2-PDC and 782815-120-R-J1-PDC lines were cultured in 6C/Colon 1B media, which includes advanced DMEM/F-12 (Thermo Fisher Scientific, cat. 12634028), 10 mM HEPES (Thermo Fisher Scientific, cat. 15630080), 1X GlutaMAX supplement (Thermo Fisher Scientific, cat. 35050061), 0.1 mg/mL primocin (InvivoGen, San Diego, CA, cat. ant-pm-2), 10% defined fetal bovine serum, heat inactivated (HyClone Laboratories Inc., Logan, UT, cat. SH30070.03HI), 50% L-WRN conditioned media (ATCC, cat. CRL-3276), 1.25 mM N-Acetyl-L-cysteine (Sigma-Aldrich, cat. A9165), 10 mM nicotinamide (Sigma-Aldrich, cat. N0636), 1X B-27 supplement (Thermo Fisher Scientific, cat. 17504044), 1X N-2 supplement (Thermo Fisher Scientific, cat. 17502048), 50 ng/mL human EGF (Thermo Fisher Scientific, cat. PHG0311), and 10 microM Y-27632 dihydrochloride (Tocris Bioscience, cat. 1254). The K12877-001-R-J1-PDC line was cultured in 6I media, which includes all 6C/Colon 1B media plus 10 ng/mL human FGF-10 (PeproTech, cat. 100-26), 1 ng/mL human FGF-2 (PeproTech, cat. 100-18B), 1 µM prostaglandin E2 (Tocris Bioscience, cat. 2296), […] hydrocortisone (Sigma-Aldrich, cat. H4001), and […] bovine insulin (Sigma-Aldrich, cat. I6634). The K86415-001-R-J1-PDC line was cultured in 6D media, which includes all 6C/Colon 1B media components minus the L-WRN conditioned media. The 485176-168-R4-J1-PDC was cultured in PANC media, which includes all 6C/Colon 1B media plus 100 ng/mL human FGF-10 (PeproTech, cat. 100-26), 500 nM SB-431542 (Selleckchem, cat. S1067), and 10 nM gastrin (Tocris Bioscience, cat. 3006). […]

[1] = second compound 0.0316 µM, first compound 0.0316 µM
[2] = second compound 0.0316 µM, first compound 0.1 µM
[3] = second compound 0.0316 µM, first compound 0.316 µM
[4] = second compound 0.0316 µM, first compound 1 µM
[5] = second compound 0.0316 µM, first compound 3.16 µM
[6] = second compound 0.0316 µM, first compound 10 µM
[7] = second compound 0.1 µM, first compound 0.0316 µM
[8] = second compound 0.1 µM, first compound 0.1 µM
[9] = second compound 0.1 µM, first compound 0.316 µM
[10] = second compound 0.1 µM, first compound 1 µM
[11] = second compound 0.1 µM, first compound 3.16 µM
[12] = second compound 0.1 µM, first compound 10 µM
[13] = second compound 0.316 µM, first compound 0.0316 µM
[14] = second compound 0.316 µM, first compound 0.1 µM
[15] = second compound 0.316 µM, first compound 0.316 µM
[16] = second compound 0.316 µM, first compound 1 µM
[17] = second compound 0.316 µM, first compound 3.16 µM
[18] = second compound 0.316 µM, first compound 10 µM
[19] = second compound 1 µM, first compound 0.0316 µM
[20] = second compound 1 µM, first compound 0.1 µM
[21] = second compound 1 µM, first compound 0.316 µM
[22] = second compound 1 µM, first compound 1 µM
[23] = second compound 1 µM, first compound 3.16 µM
[24] = second compound 1 µM, first compound 10 µM
[25] = second compound 3.16 µM, first compound 0.0316 µM
[26] = second compound 3.16 µM, first compound 0.1 µM
[27] = second compound 3.16 µM, first compound 0.316 µM
[28] = second compound 3.16 µM, first compound 1 µM
[29] = second compound 3.16 µM, first compound 3.16 µM
[30] = second compound 3.16 µM, first compound 10 µM
[31] = second compound 10 µM, first compound 0.0316 µM
[32] = second compound 10 µM, first compound 0.1 µM
[33] = second compound 10 µM, first compound 0.316 µM
[34] = second compound 10 µM, first compound 1 µM
[35] = second compound 10 µM, first compound 3.16 µM
[36] = second compound 10 µM, first compound 10 µM
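Throughout, for viability, T/C: spheroids exposed to agents for seven days before readout; 100% = DMSO vehicle control wells.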

IC50 (second compound 0.0316 µM): 5470 nM | IC50 (second compound 0.1 µM): 5820 nM | IC50 (second compound 0.316 µM): 7530 nM | IC50 (second compound 1 µM): 7940 nM | IC50 (second compound 3.16 µM): 8550 nM | IC50 (second compound 10 µM): 6450 nM
SMILES: CC(C)NCC(C(=O)N1CCN(c2ncnc3c2C(C)CC3O)CC1)c1ccc(Cl)cc1 (stereo unspecified) + C#Cc1c(F)ccc2cc(O)cc(-c3ncc4c(N5CC6CCC(C5)N6)nc(OCC56CCCN5CC(F)C6)nc4c3F)c12
viability, T/C [1]: 99.5% | viability, T/C [2]: 113% | viability, T/C [3]: 103% | viability, T/C [4]: 76.9% | viability, T/C [5]: 67.4% | viability, T/C [6]: 34.8% | viability, T/C [7]: 108% | viability, T/C [8]: 109% | viability, T/C [9]: 97.3% | viability, T/C [10]: 86% | viability, T/C [11]: 68.9% | viability, T/C [12]: 34.4% | viability, T/C [13]: 105% | viability, T/C [14]: 115% | viability, T/C [15]: 93.7% | viability, T/C [16]: 99.6% | viability, T/C [17]: 72% | viability, T/C [18]: 42.5% | viability, T/C [19]: 110% | viability, T/C [20]: 105% | viability, T/C [21]: 107% | viability, T/C [22]: 94.8% | viability, T/C [23]: 83.1% | viability, T/C [24]: 41.5% | viability, T/C [25]: 110% | viability, T/C [26]: 120% | viability, T/C [27]: 97.6% | viability, T/C [28]: 101% | viability, T/C [29]: 80.7% | viability, T/C [30]: 44.8% | viability, T/C [31]: 125% | viability, T/C [32]: 112% | viability, T/C [33]: 101% | viability, T/C [34]: 88.5% | viability, T/C [35]: 79.6% | viability, T/C [36]: 33.7%

IC50 (second compound 0.0316 µM): 90.3 nM | IC50 (second compound 0.1 µM): > 100 nM | IC50 (second compound 0.316 µM): > 100 nM | IC50 (second compound 1 µM): > 100 nM | IC50 (second compound 3.16 µM): > 100 nM | IC50 (second compound 10 µM): > 100 nM
SMILES: CC(C)n1nc(-c2ccc3oc(N)nc3c2)c2c(N)ncnc21 + C#Cc1c(F)ccc2cc(O)cc(-c3ncc4c(N5CC6CCC(C5)N6)nc(OCC56CCCN5CC(F)C6)nc4c3F)c12
viability, T/C (second compound 0.0316 µM, first compound 0.000316 µM): 104% | viability, T/C (second compound 0.0316 µM, first compound 0.001 µM): 100% | viability, T/C (second compound 0.0316 µM, first compound 0.00316 µM): 105% | viability, T/C (second compound 0.0316 µM, first compound 0.01 µM): 91.8% | viability, T/C [1]: 68.2% | viability, T/C [2]: 48.1% | viability, T/C (second compound 0.1 µM, first compound 0.000316 µM): 114% | viability, T/C (second compound 0.1 µM, first compound 0.001 µM): 105% | viability, T/C (second compound 0.1 µM, first compound 0.00316 µM): 95.7% | viability, T/C (second compound 0.1 µM, first compound 0.01 µM): 100% | viability, T/C [7]: 73.4% | viability, T/C [8]: 52.5% | viability, T/C (second compound 0.316 µM, first compound 0.000316 µM): 103% | viability, T/C (second compound 0.316 µM, first compound 0.001 µM): 97.6% | viability, T/C (second compound 0.316 µM, first compound 0.00316 µM): 115% | viability, T/C (second compound 0.316 µM, first compound 0.01 µM): 100% | viability, T/C [13]: 76.4% | viability, T/C [14]: 50% | viability, T/C (second compound 1 µM, first compound 0.000316 µM): 104% | viability, T/C (second compound 1 µM, first compound 0.001 µM): 104% | viability, T/C (second compound 1 µM, first compound 0.00316 µM): 110% | viability, T/C (second compound 1 µM, first compound 0.01 µM): 96.5% | viability, T/C [19]: 75% | viability, T/C [20]: 52.4% | viability, T/C (second compound 3.16 µM, first compound 0.000316 µM): 116% | viability, T/C (second compound 3.16 µM, first compound 0.001 µM): 128% | viability, T/C (second compound 3.16 µM, first compound 0.00316 µM): 118% | viability, T/C (second compound 3.16 µM, first compound 0.01 µM): 112% | viability, T/C [25]: 85.9% | viability, T/C [26]: 51.6% | viability, T/C (second compound 10 µM, first compound 0.000316 µM): 115% | viability, T/C (second compound 10 µM, first compound 0.001 µM): 110% | viability, T/C (second compound 10 µM, first compound 0.00316 µM): 123% | viability, T/C (second compound 10 µM, first compound 0.01 µM): 115% | viability, T/C [31]: 85.8% | viability, T/C [32]: 50.7%

IC50 (second compound 0.0316 µM): 1780 nM | IC50 (second compound 0.1 µM): 2610 nM | IC50 (second compound 0.316 µM): 2440 nM | IC50 (second compound 1 µM): 2240 nM | IC50 (second compound 3.16 µM): 4560 nM | IC50 (second compound 10 µM): 2760 nM
SMILES: CC(Nc1ccc2c(c1)OCCn1cc(N3C(=O)OCC3C(F)F)nc1-2)C(N)=O (stereo unspecified) + C#Cc1c(F)ccc2cc(O)cc(-c3ncc4c(N5CC6CCC(C5)N6)nc(OCC56CCCN5CC(F)C6)nc4c3F)c12
viability, T/C [1]: 88.4% | viability, T/C [2]: 87.2% | viability, T/C [3]: 58.2% | viability, T/C [4]: 58% | viability, T/C [5]: 47.4% | viability, T/C [6]: 30.6% | viability, T/C [7]: 88.8% | viability, T/C [8]: 78.6% | viability, T/C [9]: 70.1% | viability, T/C [10]: 57.3% | viability, T/C [11]: 51.7% | viability, T/C [12]: 35.1% | viability, T/C [13]: 97.7% | viability, T/C [14]: 83.3% | viability, T/C [15]: 66% | viability, T/C [16]: 63.5% | viability, T/C [17]: 49.2% | viability, T/C [18]: 33.8% | viability, T/C [19]: 93% | viability, T/C [20]: 76% | viability, T/C [21]: 64.9% | viability, T/C [22]: 61.5% | viability, T/C [23]: 44.2% | viability, T/C [24]: 39.8% | viability, T/C [25]: 101% | viability, T/C [26]: 76.6% | viability, T/C [27]: 71.4% | viability, T/C [28]: 65% | viability, T/C [29]: 60.9% | viability, T/C [30]: 38% | viability, T/C [31]: 102% | viability, T/C [32]: 90% | viability, T/C [33]: 70% | viability, T/C [34]: 63.9% | viability, T/C [35]: 52.5% | viability, T/C [36]: 32.5%

Reference: PubChem BioAssay AID2060895 (Molecular Pharmacology Branch, DTP, NCI, 2025)
